Results published in patent US5420138A, “Bicyclic pyridines which are angiotensin II inhibitors” (Roussel-UCLAF, priority 1992, dated 1995).

What was measured:
[1] = target: T1, angiotensin II receptor (Rattus norvegicus, UniProt P25095); assay: Test on the angiotensin II receptor (displacement of 125I angiotensin II, fresh rat liver membrane preparation); type: binding; conditions: rat liver membranes, 25° C., 150 minutes, read-out: IC50 (50% inhibiting concentration, displacement of 125I angiotensin II)
T1 construct: A fresh membrane preparation obtained from the liver of a rat was used; from tissue; host or cells: rat liver, fresh membrane preparation
T1 sequence (P25095 1-359): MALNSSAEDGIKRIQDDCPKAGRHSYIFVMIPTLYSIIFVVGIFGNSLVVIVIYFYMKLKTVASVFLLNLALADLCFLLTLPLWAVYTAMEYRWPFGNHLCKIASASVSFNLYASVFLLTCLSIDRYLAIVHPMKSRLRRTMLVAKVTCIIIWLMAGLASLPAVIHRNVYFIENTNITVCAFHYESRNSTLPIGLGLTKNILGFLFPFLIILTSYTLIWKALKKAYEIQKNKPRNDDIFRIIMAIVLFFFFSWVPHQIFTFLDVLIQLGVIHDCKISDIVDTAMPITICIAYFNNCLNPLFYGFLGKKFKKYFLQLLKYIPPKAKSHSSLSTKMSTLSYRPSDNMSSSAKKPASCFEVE
Experimental: A fresh membrane preparation obtained from the liver of a rat was used. The tissue was ground in a polytron in a Tris 50 mM pH 7.4 buffer and the grinding is followed by 3 centrifugings at 30,000 g for 15 minutes with intermediate taking up of the pellets in the Tris pH 7.4 buffer.
The last pellets were suspended in an incubation buffer (Tris 20 mM, NaCl 135 mM, KCl 10 mM, glucose 5 mM, MgCl2 10 mM, PMSF 0.3 mM, bacitracin 0.1 mM, BSA 0.2%).
2 ml aliquot fractions were distributed in hemolysis tubes and ^125 I angiotensin II (25,000 DPM/tube) and the product to be studied were added. The product was first tested with 3×10^-5 M in triplicate. When the tested product displaced more than 50% of the radioactivity bound specifically to the receptor, it was tested again according to a range of 7 concentrations to determine the concentration which inhibited by 50% the radioactivity bound specifically to the receptor. In this way, the 50% inhibiting concentration was determined.
The non-specific bond was determined by the addition of the product of Example 94 of the European Patent 0253310, at 10^-5 M (in triplicate).The product was incubated at 25° C. for 150 minutes, put in a water-bath at 0° C. for 5 minutes, filtered under vacuum, rinsed with Tris pH 7.4 buffer and the radioactivity was counted in the presence of scintillating Triton. […]

[2] = test system: angiotensin II; assay: Test of the antagonistic activity of angiotensin II by oral route in a demedullated rat; type: in vivo, Male Sprague Dawley rats; conditions: oral (force-feeding), angiotensin II 0.75 ug/kg 60 and 75 minutes after force-feeding, read-out: ID50 (dose inhibiting the effects on pressure of angiotensin II by 50%), oral route
Experimental: Male Sprague Dawley rats of equal weight (300-330 g) were selected. The animals were divided into several groups (n ≥6 per group), receiving either the solvent (control group) or the antagonistic molecule of angiotensin II. The doses administered were determined from the ID50 IV. The solvent used. was methyl cellulose (5 ml/kg).
45 minutes after force-feeding, the animals were anaesthetized with sodium pentobarbital (60 mg/kg, IP). The diastolic arterial pressure was recorded using a heparinated catheter (PE50) introduced into the left carotid artery of the animal, and connected by means of a pressure sensor (Gould, P10 EZ) to a pressure processor (Gould, Pressure Processor). The rat was put under assisted respiration, then demedullated and bilaterally vagotomized.
Two injections of angiotensin II (0.75 ug/kg; Hypertensin, Ciba) were given via the pudendal vein, 60 and 75 minutes respectively after the force-feeding of the animals.
The effects on pressure of angiotensin II in the presence of the antagonist were expressed as a percentage of the effects on pressure of angiotensin II administered to the control group.
For each product, the dose inhibiting the studied effect by 50% (ID50) was thus determined.

[3] = test system: angiotensin II; assay: Test for antagonistic activity of angiotensin II in a demedullated rat (intravenous); type: in vivo, Male Sprague-Dawley rats; conditions: injected via right jugular vein 5 minutes before angiotensin II (0.75 micrograms/kg), diastolic arterial pressure, read-out: ID50 (dose inhibiting the effects on pressure of angiotensin II by 50%)
Experimental: Male Sprague-Dawley rats (250 to 350 g) were anaesthetized by an intra-peritoneal injection of sodium pentobarbital (60 mg/kg). The diastolic arterial pressure was recorded using a heparinated catheter (PE50) introduced into the left carotid artery of the animal, and connected to a pressure processor (Gould, Pressure Processor) by means of a Gould pressure sensor.
A catheter was introduced into the right jugular vein of the animal to permit the injection of the molecules to be studied.
The animal was placed under assisted respiration. A bilateral section of the pneumogastric nerve is carried out. The rat is then demedullated.
After a sufficient period of stabilization, the study of the antagonism of the molecules vis-a-vis angiotensin II (Hypertensin, CIBA) was carried out in the following way:
1--Three consecutive injections of angiotensin II (0.75 micrograms/kg) at 15 minute intervals enabled a reproducible and stable pressure response to be obtained.
2--While keeping an administration frequency of 15 minutes of the angiotensin II, the molecules (0.01 to 10 mg/kg) were injected 5 minutes before the angiotensin II.
The effects on pressure of angiotensin II in the presence of the antagonist were expressed as a percentage of the effects on pressure of angiotensin II administered on its own. The dose inhibiting the studied effect by 50% was determined in this way (ID50). […]

IC50 [1]	SMILES	ED50 [2]	ED50 [3]
0.0005 µM	CCCCc1nn2cccc(C(=O)O)c2c1Cc1ccc(-c2ccccc2-c2nnn[nH]2)cc1 [Example 21, 2-butyl 3-[(2'-(1H-tetrazol-5-yl) (1,1'-biphenyl) 4-yl)methyl]pyrazolo(1,5-a)pyridin 4-carboxylic acid]	2.35 mg/kg	0.3 mg/kg
0.024 µM	CCCCc1nn2c(C)cccc2c1Cc1ccc(-c2ccccc2-c2nn[nH]n2)cc1 [Example 32, 2-butyl 7-methyl 3-[[2'-(1H-tetrazol--S--yl) (1,1'-biphenyl) 4-yl]methyl]pyrazolo (1,5-a) pyridine]	–	–
